In the NIST ThermoML archive (doi:10.1007/s10765-005-5567-5):

Test: mn = molality of the nth substance listed, in mol/kg
Conditions: Liquid; for thermal conductivity: Coaxial cylinder method; for viscosity: Capillary tube (Ostwald / Ubbelohde) method

O=S(=O)([O-])[O-].[K+].[K+] [potassium sulfate] + O
Conditions | thermal conductivity, 100 kPa [W/m/K] | thermal conductivity, 10000 kPa [W/m/K] | thermal conductivity, 30000 kPa [W/m/K] | viscosity, 0.1 kPa [mPa·s] | viscosity, 10 kPa [mPa·s] | viscosity, 20 kPa [mPa·s] | viscosity, 30 kPa [mPa·s]
298 K, m1 = 0.499 | 0.602 | 0.607 | 0.616 | – | – | – | –
298.15 K, m1 = 0.0658 | – | – | – | 0.9039 | 0.9023 | 0.904 | 0.9053
298.15 K, m1 = 0.2055 | – | – | – | 0.931 | 0.9297 | 0.931 | 0.9319
298.15 K, m1 = 0.305 | – | – | – | 0.9616 | 0.9618 | 0.9615 | 0.964
298.15 K, m1 = 0.407 | – | – | – | 0.9825 | 0.9823 | 0.9826 | 0.983
298.4 K, m1 = 0.239 | 0.605 | 0.61 | 0.62 | – | – | – | –
311.65 K, m1 = 0.2055 | – | – | – | 0.7107 | 0.7122 | 0.7133 | 0.7151
312.25 K, m1 = 0.407 | – | – | – | 0.7386 | 0.7414 | 0.7439 | 0.7452
312.55 K, m1 = 0.305 | – | – | – | 0.7172 | 0.7194 | 0.7207 | 0.7227
313 K, m1 = 0.239 | 0.626 | 0.631 | 0.641 | – | – | – | –
313.1 K, m1 = 0.782 | 0.618 | 0.623 | 0.632 | – | – | – | –
313.55 K, m1 = 0.0658 | – | – | – | 0.6609 | 0.6613 | 0.665 | 0.667
313.6 K, m1 = 0.499 | 0.622 | 0.627 | 0.637 | – | – | – | –
323.15 K, m1 = 0.2055 | – | – | – | 0.5819 | 0.5837 | 0.5858 | 0.5885
323.15 K, m1 = 0.305 | – | – | – | 0.5972 | 0.5991 | 0.6019 | 0.6045
323.25 K, m1 = 0.0658 | – | – | – | 0.5568 | 0.5586 | 0.5601 | 0.5617
323.35 K, m1 = 0.407 | – | – | – | 0.6109 | 0.613 | 0.6159 | 0.618
333.3 K, m1 = 0.782 | 0.64 | 0.645 | – | – | – | – | –
